From ChEMBL document CHEMBL1152897, “Synthesis and SAR study of novel pseudo-steroids as potent and selective progesterone receptor antagonists” (Bioorg Med Chem Lett, 2009)

Key:
Progesterone receptor = target: T1, Progesterone receptor (Homo sapiens, UniProt P06401); assay: Antagonist activity at progesterone receptor in human T47D cells assessed as inhibition of progesterone-induced alkaline phosphatase activity; assay type: functional, cell-based
T1 sequence (P06401 whole entry): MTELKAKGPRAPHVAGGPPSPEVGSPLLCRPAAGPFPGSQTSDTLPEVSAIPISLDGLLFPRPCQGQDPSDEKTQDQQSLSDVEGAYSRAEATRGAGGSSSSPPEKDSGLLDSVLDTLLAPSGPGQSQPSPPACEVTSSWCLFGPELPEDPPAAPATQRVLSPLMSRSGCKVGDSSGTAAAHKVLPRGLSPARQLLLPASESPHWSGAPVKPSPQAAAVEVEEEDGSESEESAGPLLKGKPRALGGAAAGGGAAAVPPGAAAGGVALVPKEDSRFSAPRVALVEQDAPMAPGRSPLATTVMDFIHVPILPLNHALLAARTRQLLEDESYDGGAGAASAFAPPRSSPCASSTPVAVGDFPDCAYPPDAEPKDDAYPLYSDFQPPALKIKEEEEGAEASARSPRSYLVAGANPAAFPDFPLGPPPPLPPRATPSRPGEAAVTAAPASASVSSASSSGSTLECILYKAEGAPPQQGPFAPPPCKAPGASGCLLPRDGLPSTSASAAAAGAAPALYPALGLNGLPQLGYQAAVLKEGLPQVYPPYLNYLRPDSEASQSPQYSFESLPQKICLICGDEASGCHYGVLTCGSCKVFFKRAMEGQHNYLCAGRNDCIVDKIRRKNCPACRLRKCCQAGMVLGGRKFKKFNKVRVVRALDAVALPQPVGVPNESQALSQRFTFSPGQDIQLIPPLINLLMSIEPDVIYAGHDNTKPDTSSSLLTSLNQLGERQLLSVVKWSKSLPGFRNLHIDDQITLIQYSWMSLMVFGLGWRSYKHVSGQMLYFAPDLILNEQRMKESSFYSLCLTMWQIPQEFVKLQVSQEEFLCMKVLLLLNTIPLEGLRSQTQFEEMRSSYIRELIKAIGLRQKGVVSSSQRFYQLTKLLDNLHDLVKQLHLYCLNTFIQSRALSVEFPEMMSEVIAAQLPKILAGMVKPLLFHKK

Glucocorticoid receptor = target: T2, Glucocorticoid receptor (Homo sapiens, UniProt P04150); assay: Antagonist activity at glucocorticoid receptor in human A549 cells assessed as inhibition of corticoid-induced transcription after 16 hrs by glucocorticoid response element-driven luciferase reporter gene assay; assay type: functional, cell-based
T2 sequence (P04150 whole entry): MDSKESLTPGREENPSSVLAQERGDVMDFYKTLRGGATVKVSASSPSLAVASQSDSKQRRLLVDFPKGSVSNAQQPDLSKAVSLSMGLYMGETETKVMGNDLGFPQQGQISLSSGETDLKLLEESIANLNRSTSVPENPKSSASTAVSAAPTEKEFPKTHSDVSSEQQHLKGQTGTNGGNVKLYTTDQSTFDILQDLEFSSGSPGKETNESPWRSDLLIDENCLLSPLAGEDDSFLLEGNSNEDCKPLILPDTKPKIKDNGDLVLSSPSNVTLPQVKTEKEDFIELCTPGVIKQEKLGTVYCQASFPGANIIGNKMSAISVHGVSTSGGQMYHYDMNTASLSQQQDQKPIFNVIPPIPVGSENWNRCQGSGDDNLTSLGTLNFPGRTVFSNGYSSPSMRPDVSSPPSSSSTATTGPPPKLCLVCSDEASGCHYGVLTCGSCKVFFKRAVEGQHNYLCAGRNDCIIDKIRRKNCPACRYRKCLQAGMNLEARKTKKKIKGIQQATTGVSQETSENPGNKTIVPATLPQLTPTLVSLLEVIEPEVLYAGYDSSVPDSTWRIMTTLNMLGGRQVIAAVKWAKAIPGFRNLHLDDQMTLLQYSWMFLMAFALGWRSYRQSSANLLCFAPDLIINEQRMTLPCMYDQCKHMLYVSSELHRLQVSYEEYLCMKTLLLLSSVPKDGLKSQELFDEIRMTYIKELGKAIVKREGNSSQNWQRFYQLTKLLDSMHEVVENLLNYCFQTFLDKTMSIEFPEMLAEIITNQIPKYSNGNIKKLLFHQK

Rattus norvegicus = assay: Blockade of progesterone-dependent inhibition of ethinyl estradiol-induced complement C3 expression in po dosed ovariectomized Sprague-Dawley rat uterus; assay type: functional, organism-based

Compound	IC50 (Progesterone receptor) [nM]	IC50 (Glucocorticoid receptor) [nM]	IC50 (Rattus norvegicus) [mg/kg]
COc1ccc([C@H]2OC[C@@]3(C)[C@@H](CC[C@@]3(O)C#Cc3ccccc3)[C@@H]3CCC4=CC(=O)CCC4=C32)cc1	280	21	
C=C(C)[C@]1(O)CC[C@H]2[C@@H]3CCC4=CC(=O)CCC4=C3[C@@H](c3ccc(SC)cc3)OC[C@@]21C	3.3	58	
C=C1CCO[C@]12CC[C@H]1[C@@H]3CCC4=CC(=O)CCC4=C3[C@@H](c3ccc(N(C)C)cc3)OC[C@@]12C	1	62	
CSc1ccc([C@H]2OC[C@@]3(C)[C@@H](CC[C@@]3(O)C(F)(F)C(F)(F)F)[C@@H]3CCC4=CC(=O)CCC4=C32)cc1	56	7	
CN(C)c1ccc([C@H]2OC[C@@]3(C)[C@@H](CC[C@@]3(O)C#Cc3ccccc3)[C@@H]3CCC4=CC(=O)CCC4=C32)cc1	60	102	
CN(C)c1ccc([C@H]2OC[C@]3(C)[C@@H](O)CC[C@H]3[C@@H]3CCC4=CC(=O)CCC4=C32)cc1	930	1400	
C=C(C)[C@]1(O)CC[C@H]2[C@@H]3CCC4=CC(=O)CCC4=C3[C@@H](c3ccc(N(C)C)cc3)OC[C@@]21C	0.3	150	
C=C(C)[C@]1(O)CC[C@H]2[C@@H]3CCC4=CC(=O)CCC4=C3[C@@H](c3ccc(S(C)(=O)=O)cc3)OC[C@@]21C	> 1000	> 3000	
CN(C)c1ccc([C@H]2OC[C@@]3(C)[C@@H](CC[C@@]3(O)C(F)(F)C(F)(F)F)[C@@H]3CCC4=CC(=O)CCC4=C32)cc1	36	20	
CC#C[C@]1(O)CC[C@H]2[C@@H]3CCC4=CC(=O)CCC4=C3[C@@H](c3ccc(N(C)C)cc3)C[C@@]21C [MIFEPRISTONE]			4.6

Results, then the compound that gave them:

IC50 (Progesterone receptor) [nM]	IC50 (Glucocorticoid receptor) [nM]	IC50 (Rattus norvegicus) [mg/kg]	Compound
82	26		COc1ccc([C@H]2OC[C@@]3(C)[C@@H](CC[C@@]3(O)C#Cc3ccc(C(F)(F)F)cc3)[C@@H]3CCC4=CC(=O)CCC4=C32)cc1
> 1000	110		C#C[C@]1(O)CC[C@H]2[C@@H]3CCC4=CC(=O)CCC4=C3[C@@H](c3ccc(OC)cc3)OC[C@@]21C
34	17	16	CC#C[C@]1(O)CC[C@H]2[C@@H]3CCC4=CC(=O)CCC4=C3[C@@H](c3ccc(N(C)C)cc3)OC[C@@]21C
7	132		C=C1CCO[C@]12CC[C@H]1[C@@H]3CCC4=CC(=O)CCC4=C3[C@@H](c3ccc(OC)cc3)OC[C@@]12C
> 1000	41		CC#C[C@]1(O)CC[C@H]2[C@@H]3CCC4=CC(=O)CCC4=C3[C@@H](c3ccc(OC)cc3)OC[C@@]21C
33	68		C#C[C@]1(O)CC[C@H]2[C@@H]3CCC4=CC(=O)CCC4=C3[C@@H](c3ccc(N(C)C)cc3)OC[C@@]21C
